Measured values from the supplement of paper PMC10307832.

Key:
Assay in all cases: relative viability (nuclei count vs DMSO), 5 days (fraction); higher = more cells survive
NCI-H1915 = system: NCI-H1915
Method in brief: (§1)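 Relative viability equals treated-well nuclei counts divided by vehicle-well nuclei counts. Counts came from 4× images of lung cancer cell lines grown in 1536-well plates for 5 days after pin-tool dosing on the day after seeding. Dosing used one drug alone or a fixed anchor-drug dose plus five library-drug doses (not always all listed) in √10 steps, and values are medians of duplicate plates.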

NCI-H2228 = system: NCI-H2228
Method in brief: as §1

SK-MES-1 = system: SK-MES-1
Method in brief: as §1

NCI-H661 = system: NCI-H661
Method in brief: as §1

NCI-H2347 = system: NCI-H2347
Method in brief: as §1

NCI-H1437 = system: NCI-H1437
Method in brief: as §1

NCI-H1755 = system: NCI-H1755
Method in brief: as §1

SK-LU-1 = system: SK-LU-1
Method in brief: as §1

NCI-H1944 = system: NCI-H1944
Method in brief: as §1

LXF-289 = system: LXF-289
Method in brief: as §1

CAL-12T = system: CAL-12T
Method in brief: as §1

EMC-BAC-2 = system: EMC-BAC-2
Method in brief: as §1

NCI-H1651 = system: NCI-H1651
Method in brief: as §1

H3255 = system: H3255
Method in brief: as §1

NCI-H2087 = system: NCI-H2087
Method in brief: as §1

LC-2-ad = system: LC-2-ad
Method in brief: as §1

NCI-H2085 = system: NCI-H2085
Method in brief: as §1

COR-L 105 = system: COR-L 105
Method in brief: as §1

LK-2 = system: LK-2
Method in brief: as §1

EKVX = system: EKVX
Method in brief: as §1

PC-3 [JPC-3] = system: PC-3 [JPC-3]
Method in brief: as §1

## O=c1[nH]c2ccccc2n1C1CCN(CCCC(c2ccc(F)cc2)c2ccc(F)cc2)CC1 [Pimozide] + C[C@@H](Oc1cc(-c2cnn(C3CCNCC3)c2)cnc1N)c1c(Cl)ccc(F)c1Cl [Crizotinib] (partner 1 µM)
NCI-H1915; first compound 0.08 µM
  relative viability: 0.971
NCI-H1915; first compound 0.253 µM
  relative viability: 0.863
NCI-H1915; first compound 0.8 µM
  relative viability: 0.709
NCI-H1915; first compound 2.53 µM
  relative viability: 0.863
NCI-H1915; first compound 8 µM
  relative viability: 0.784
NCI-H2228; first compound 0.08 µM
  relative viability: 0.406
NCI-H2228; first compound 0.253 µM
  relative viability: 0.572
NCI-H2228; first compound 0.8 µM
  relative viability: 0.406
NCI-H2228; first compound 2.53 µM
  relative viability: 0.38
NCI-H2228; first compound 8 µM
  relative viability: 0.354
SK-MES-1; first compound 0.08 µM
  relative viability: 0.882
SK-MES-1; first compound 0.253 µM
  relative viability: 0.928
SK-MES-1; first compound 0.8 µM
  relative viability: 0.957
SK-MES-1; first compound 2.53 µM
  relative viability: 1.01
SK-MES-1; first compound 8 µM
  relative viability: 0.901
NCI-H661; first compound 0.08 µM
  relative viability: 0.975
NCI-H661; first compound 0.8 µM
  relative viability: 0.921
NCI-H661; first compound 2.53 µM
  relative viability: 0.995
NCI-H661; first compound 8 µM
  relative viability: 0.962
NCI-H2347; first compound 0.08 µM
  relative viability: 0.807
NCI-H2347; first compound 0.253 µM
  relative viability: 0.661
NCI-H2347; first compound 0.8 µM
  relative viability: 0.545
NCI-H2347; first compound 2.53 µM
  relative viability: 0.517
NCI-H2347; first compound 8 µM
  relative viability: 0.51
NCI-H1437; first compound 0.08 µM
  relative viability: 0.949
NCI-H1437; first compound 0.253 µM
  relative viability: 0.878
NCI-H1437; first compound 0.8 µM
  relative viability: 0.898
NCI-H1437; first compound 2.53 µM
  relative viability: 0.903
NCI-H1437; first compound 8 µM
  relative viability: 0.751
NCI-H1755; first compound 0.08 µM
  relative viability: 0.881
NCI-H1755; first compound 0.253 µM
  relative viability: 0.845
NCI-H1755; first compound 0.8 µM
  relative viability: 0.794
NCI-H1755; first compound 2.53 µM
  relative viability: 0.792
NCI-H1755; first compound 8 µM
  relative viability: 0.697
SK-LU-1; first compound 0.08 µM
  relative viability: 0.895
SK-LU-1; first compound 0.253 µM
  relative viability: 0.792
SK-LU-1; first compound 0.8 µM
  relative viability: 0.912
SK-LU-1; first compound 2.53 µM
  relative viability: 0.786
SK-LU-1; first compound 8 µM
  relative viability: 0.769
NCI-H1944; first compound 0.08 µM
  relative viability: 0.992
NCI-H1944; first compound 0.253 µM
  relative viability: 1.03
NCI-H1944; first compound 0.8 µM
  relative viability: 1.05
NCI-H1944; first compound 2.53 µM
  relative viability: 0.967
NCI-H1944; first compound 8 µM
  relative viability: 0.939
LXF-289; first compound 0.08 µM
  relative viability: 0.791
LXF-289; first compound 0.253 µM
  relative viability: 0.775
LXF-289; first compound 0.8 µM
  relative viability: 0.79
LXF-289; first compound 2.53 µM
  relative viability: 0.774
LXF-289; first compound 8 µM
  relative viability: 0.709
CAL-12T; first compound 0.08 µM
  relative viability: 0.711
CAL-12T; first compound 0.253 µM
  relative viability: 0.644
CAL-12T; first compound 0.8 µM
  relative viability: 0.557
CAL-12T; first compound 2.53 µM
  relative viability: 0.469
CAL-12T; first compound 8 µM
  relative viability: 0.473
EMC-BAC-2; first compound 0.08 µM
  relative viability: 0.752
EMC-BAC-2; first compound 0.253 µM
  relative viability: 0.79
EMC-BAC-2; first compound 0.8 µM
  relative viability: 0.691
EMC-BAC-2; first compound 2.53 µM
  relative viability: 0.616
EMC-BAC-2; first compound 8 µM
  relative viability: 0.691
NCI-H1651; first compound 0.08 µM
  relative viability: 0.801
NCI-H1651; first compound 0.8 µM
  relative viability: 0.818
NCI-H1651; first compound 2.53 µM
  relative viability: 0.764
NCI-H1651; first compound 8 µM
  relative viability: 0.933
H3255; first compound 0.253 µM
  relative viability: 0.801
H3255; first compound 0.8 µM
  relative viability: 0.764
H3255; first compound 2.53 µM
  relative viability: 0.983
H3255; first compound 8 µM
  relative viability: 0.875
NCI-H2087; first compound 0.08 µM
  relative viability: 0.856
NCI-H2087; first compound 0.253 µM
  relative viability: 0.721
NCI-H2087; first compound 0.8 µM
  relative viability: 0.604
NCI-H2087; first compound 2.53 µM
  relative viability: 0.826
NCI-H2087; first compound 8 µM
  relative viability: 0.889
LC-2-ad; first compound 0.08 µM
  relative viability: 0.474
LC-2-ad; first compound 0.253 µM
  relative viability: 0.441
LC-2-ad; first compound 0.8 µM
  relative viability: 0.403
LC-2-ad; first compound 2.53 µM
  relative viability: 0.466
LC-2-ad; first compound 8 µM
  relative viability: 0.479
NCI-H2085; first compound 0.08 µM
  relative viability: 0.897
NCI-H2085; first compound 0.253 µM
  relative viability: 0.792
NCI-H2085; first compound 0.8 µM
  relative viability: 0.772
NCI-H2085; first compound 2.53 µM
  relative viability: 0.712
NCI-H2085; first compound 8 µM
  relative viability: 0.775
COR-L 105; first compound 0.253 µM
  relative viability: 0.831
COR-L 105; first compound 0.8 µM
  relative viability: 0.691
COR-L 105; first compound 2.53 µM
  relative viability: 0.645
COR-L 105; first compound 8 µM
  relative viability: 0.555
LK-2; first compound 0.08 µM
  relative viability: 0.225
LK-2; first compound 0.253 µM
  relative viability: 0.224
LK-2; first compound 0.8 µM
  relative viability: 0.243
LK-2; first compound 2.53 µM
  relative viability: 0.225
LK-2; first compound 8 µM
  relative viability: 0.234
EKVX; first compound 0.253 µM
  relative viability: 0.949
EKVX; first compound 0.8 µM
  relative viability: 0.895
EKVX; first compound 2.53 µM
  relative viability: 0.865
EKVX; first compound 8 µM
  relative viability: 0.876
PC-3 [JPC-3]; first compound 0.253 µM
  relative viability: 0.878
PC-3 [JPC-3]; first compound 0.8 µM
  relative viability: 0.91
PC-3 [JPC-3]; first compound 2.53 µM
  relative viability: 0.915
PC-3 [JPC-3]; first compound 8 µM
  relative viability: 0.854
